Assay results taken from PMC7156458, “Synthetic biology based construction of biological activity-related library of fungal decalin-containing diterpenoid pyrones” (Nature Communications, 2020).

Biological target: Aβ42 (Homo sapiens, UniProt P05067)
Assay: Th-T (thioflavin-T) assay of Aβ42 aggregation
Type: biochemical
Conditions: for Th-T fluorescence, mean of three wells: Aβ42 aggregation time course

Chain of Aβ42 (P05067 672-713): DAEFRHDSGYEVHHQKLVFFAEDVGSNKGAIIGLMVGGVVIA

Question: How did the “delay of the nucleation phase” value turn out when C=C1CCC2C(C)(CCC=C(C)C)C(O)CCC2(C)C1Cc1c(OC)oc(C)c(C(=O)OC)c1=O (stereo not drawn) [Compound 14] was run?
Answer: no delay

Question: And the “elongation of Aβ42” value?
Answer: partly suppressed the elongation of Aβ42

Question: What about the “first Th-T assay result” value (Aβ42 (10 μM) ± DPPs (20 μM), room temperature) of the same molecule?
Answer: suppressed Aβ42

Question: What about the “Th-T fluorescence, mean of three wells” value (reading M117) of the same molecule?
Answer: 1.655

Question: What about the “Th-T fluorescence, mean of three wells” value (reading M118) of the same molecule?
Answer: 1.6572

Question: What about the “Th-T fluorescence, mean of three wells” value (reading M119) of the same molecule?
Answer: 1.678

Question: And the “Th-T fluorescence, mean of three wells” value (reading M120)?
Answer: 1.679

Question: What about the “Th-T fluorescence, mean of three wells” value (reading M121) of the same molecule?
Answer: 1.668

Question: And the “Th-T fluorescence, mean of three wells” value (reading M122)?
Answer: 1.683

Question: What about the “Th-T fluorescence, mean of three wells” value (reading M123) of the same molecule?
Answer: 1.681

Question: What about the “Th-T fluorescence, mean of three wells” value (reading M124) of the same molecule?
Answer: 1.6777

Question: What about the “Th-T fluorescence, mean of three wells” value (reading M125) of the same molecule?
Answer: 1.687

Question: And the “Th-T fluorescence, mean of three wells” value (reading M126)?
Answer: 1.688

Question: And the “Th-T fluorescence, mean of three wells” value (reading M127)?
Answer: 1.689

Question: And the “Th-T fluorescence, mean of three wells” value (reading M128)?
Answer: 1.7014

Question: And the “Th-T fluorescence, mean of three wells” value (reading M129)?
Answer: 1.701

Question: What about the “Th-T fluorescence, mean of three wells” value (reading M130) of the same molecule?
Answer: 1.6991

Question: What about the “Th-T fluorescence, mean of three wells (Fig. 7a)” value (“Th-T fluorescence … (Fig. 7a)” below) (column suffix _10, measurement M19) of the same molecule?
Answer: 1.991

Question: What about the “Th-T fluorescence … (Fig. 7a)” value (column suffix _10, measurement M20) of the same molecule?
Answer: 2.087

Question: What about the “Th-T fluorescence … (Fig. 7a)” value (column suffix _10, measurement M21) of the same molecule?
Answer: 2.17

Question: And the “Th-T fluorescence … (Fig. 7a)” value (column suffix _10, measurement M22)?
Answer: 2.206

Question: And the “Th-T fluorescence … (Fig. 7a)” value (column suffix _10, measurement M23)?
Answer: 2.232

Question: What about the “Th-T fluorescence … (Fig. 7a)” value (column suffix _10, measurement M24) of the same molecule?
Answer: 2.258

Question: What about the “Th-T fluorescence … (Fig. 7a)” value (column suffix _10, measurement M25) of the same molecule?
Answer: 2.291

Question: What about the “Th-T fluorescence … (Fig. 7a)” value (column suffix _10, measurement M26) of the same molecule?
Answer: 2.3072

Question: And the “Th-T fluorescence … (Fig. 7a)” value (column suffix _10, measurement M27)?
Answer: 2.333

Question: What about the “Th-T fluorescence … (Fig. 7a)” value (column suffix _10, measurement M28) of the same molecule?
Answer: 2.3263

Question: What about the “Th-T fluorescence … (Fig. 7a)” value (column suffix _10, measurement M29) of the same molecule?
Answer: 2.338

Question: And the “Th-T fluorescence … (Fig. 7a)” value (column suffix _10, measurement M30)?
Answer: 2.363

Question: And the “Th-T assay signal, mean of three wells (Fig. 7a)” value (shortened to “Th-T assay signal, mean”) (column suffix _10, reading M1)?
Answer: 0.2293

Question: And the “Th-T assay signal, mean” value (column suffix _10, reading M2)?
Answer: 0.2207

Question: And the “Th-T assay signal, mean” value (column suffix _10, reading M3)?
Answer: 0.2333

Question: What about the “Th-T assay signal, mean” value (column suffix _10, reading M4) of the same molecule?
Answer: 0.2495

Question: What about the “Th-T assay signal, mean” value (column suffix _10, reading M5) of the same molecule?
Answer: 0.2748

Question: And the “Th-T assay signal, mean” value (column suffix _10, reading M6)?
Answer: 0.3168

Question: What about the “Th-T assay signal, mean” value (column suffix _10, reading M7) of the same molecule?
Answer: 0.3327

Question: What about the “Th-T assay signal, mean” value (column suffix _10, reading M8) of the same molecule?
Answer: 0.3584

Question: And the “Th-T assay signal, mean” value (column suffix _10, reading M9)?
Answer: 0.3937

Question: And the “Th-T assay signal, mean” value (column suffix _10, reading M10)?
Answer: 0.4248

Question: What about the “Th-T assay signal, mean” value (column suffix _10, reading M11) of the same molecule?
Answer: 0.4498

Question: What about the “Th-T assay signal, mean” value (column suffix _10, reading M12) of the same molecule?
Answer: 0.5064

Question: And the “Th-T assay signal, mean” value (column suffix _10, reading M13)?
Answer: 0.6552

Question: What about the “Th-T assay signal, mean” value (column suffix _10, reading M14) of the same molecule?
Answer: 0.8811

Question: What about the “Th-T assay signal, mean” value (column suffix _10, reading M15) of the same molecule?
Answer: 1.163

Question: And the “Th-T assay signal, mean” value (column suffix _10, reading M16)?
Answer: 1.433

Question: And the “Th-T assay signal, mean” value (column suffix _10, reading M17)?
Answer: 1.668

Question: What about the “Th-T assay signal, mean” value (column suffix _10, reading M18) of the same molecule?
Answer: 1.846

Question: What about the “Fig. 7a Th-T reading, mean of three wells” value (“Fig. 7a Th-T reading, mean” for short) (column suffix _10, reading M85) of the same molecule?
Answer: 2.79

Question: What about the “Fig. 7a Th-T reading, mean” value (column suffix _10, reading M86) of the same molecule?
Answer: 2.788

Question: What about the “Fig. 7a Th-T reading, mean” value (column suffix _10, reading M87) of the same molecule?
Answer: 2.811

Question: And the “Fig. 7a Th-T reading, mean” value (column suffix _10, reading M88)?
Answer: 2.833

Question: What about the “Fig. 7a Th-T reading, mean” value (column suffix _10, reading M89) of the same molecule?
Answer: 2.856

Question: And the “Fig. 7a Th-T reading, mean” value (column suffix _10, reading M90)?
Answer: 2.853

Question: And the “Fig. 7a Th-T reading, mean” value (column suffix _10, reading M91)?
Answer: 2.848

Question: And the “Fig. 7a Th-T reading, mean” value (column suffix _10, reading M92)?
Answer: 2.836

Question: What about the “Fig. 7a Th-T reading, mean” value (column suffix _10, reading M93) of the same molecule?
Answer: 2.868

Question: What about the “Fig. 7a Th-T reading, mean” value (column suffix _10, reading M94) of the same molecule?
Answer: 2.853

Question: And the “Fig. 7a Th-T reading, mean” value (column suffix _10, reading M95)?
Answer: 2.8555

Question: And the “Fig. 7a Th-T reading, mean” value (column suffix _10, reading M96)?
Answer: 2.819

Question: What about the “Fig. 7a Th-T reading, mean” value (column suffix _10, reading M97) of the same molecule?
Answer: 2.823

Question: What about the “Fig. 7a Th-T reading, mean” value (column suffix _10, reading M98) of the same molecule?
Answer: 2.843

Question: What about the “Fig. 7a Th-T reading, mean” value (column suffix _10, reading M99) of the same molecule?
Answer: 2.862

Question: What about the “Fig. 7a Th-T reading, mean” value (column suffix _10, reading M100) of the same molecule?
Answer: 2.849

Question: What about the “Fig. 7a Th-T reading, mean” value (column suffix _10, reading M101) of the same molecule?
Answer: 2.83

Question: What about the “Fig. 7a Th-T reading, mean” value (column suffix _10, reading M102) of the same molecule?
Answer: 2.84

Question: And the “Fig. 7a Th-T reading, mean” value (column suffix _10, reading M103)?
Answer: 2.843

Question: And the “Fig. 7a Th-T reading, mean” value (column suffix _10, reading M104)?
Answer: 2.878

Question: And the “Fig. 7a Th-T reading, mean” value (column suffix _10, reading M105)?
Answer: 2.894

Question: And the “Fig. 7a Th-T reading, mean” value (column suffix _10, reading M106)?
Answer: 2.859

Question: And the “Th-T fluorescence … (Fig. 7a)” value (column suffix _20, measurement M19)?
Answer: 1.051

Question: And the “Th-T fluorescence … (Fig. 7a)” value (column suffix _20, measurement M20)?
Answer: 1.16

Question: What about the “Th-T fluorescence … (Fig. 7a)” value (column suffix _20, measurement M21) of the same molecule?
Answer: 1.235

Question: And the “Th-T fluorescence … (Fig. 7a)” value (column suffix _20, measurement M22)?
Answer: 1.279

Question: What about the “Th-T fluorescence … (Fig. 7a)” value (column suffix _20, measurement M23) of the same molecule?
Answer: 1.352

Question: What about the “Th-T fluorescence … (Fig. 7a)” value (column suffix _20, measurement M24) of the same molecule?
Answer: 1.3992

Question: What about the “Th-T fluorescence … (Fig. 7a)” value (column suffix _20, measurement M25) of the same molecule?
Answer: 1.478

Question: What about the “Th-T fluorescence … (Fig. 7a)” value (column suffix _20, measurement M26) of the same molecule?
Answer: 1.556

Question: What about the “Th-T fluorescence … (Fig. 7a)” value (column suffix _20, measurement M27) of the same molecule?
Answer: 1.595

Question: What about the “Th-T fluorescence … (Fig. 7a)” value (column suffix _20, measurement M28) of the same molecule?
Answer: 1.672

Question: And the “Th-T fluorescence … (Fig. 7a)” value (column suffix _20, measurement M29)?
Answer: 1.711

Question: What about the “Th-T assay signal, mean” value (column suffix _20, reading M1) of the same molecule?
Answer: 0.305

Question: And the “Th-T assay signal, mean” value (column suffix _20, reading M2)?
Answer: 0.2567

Question: What about the “Th-T assay signal, mean” value (column suffix _20, reading M3) of the same molecule?
Answer: 0.2803

Question: And the “Th-T assay signal, mean” value (column suffix _20, reading M4)?
Answer: 0.2741

Question: And the “Th-T assay signal, mean” value (column suffix _20, reading M5)?
Answer: 0.2931

Question: And the “Th-T assay signal, mean” value (column suffix _20, reading M6)?
Answer: 0.3005

Question: What about the “Th-T assay signal, mean” value (column suffix _20, reading M7) of the same molecule?
Answer: 0.3085

Question: And the “Th-T assay signal, mean” value (column suffix _20, reading M8)?
Answer: 0.3015

Question: And the “Th-T assay signal, mean” value (column suffix _20, reading M9)?
Answer: 0.3254

Question: And the “Th-T assay signal, mean” value (column suffix _20, reading M10)?
Answer: 0.3505

Question: What about the “Th-T assay signal, mean” value (column suffix _20, reading M11) of the same molecule?
Answer: 0.3712

Question: What about the “Th-T assay signal, mean” value (column suffix _20, reading M12) of the same molecule?
Answer: 0.4273

Question: And the “Th-T assay signal, mean” value (column suffix _20, reading M13)?
Answer: 0.4951

Question: And the “Th-T assay signal, mean” value (column suffix _20, reading M14)?
Answer: 0.5807

Question: What about the “Th-T assay signal, mean” value (column suffix _20, reading M15) of the same molecule?
Answer: 0.6574

Question: What about the “Th-T assay signal, mean” value (column suffix _20, reading M16) of the same molecule?
Answer: 0.7497

Question: And the “Th-T assay signal, mean” value (column suffix _20, reading M17)?
Answer: 0.8453

Question: What about the “Th-T assay signal, mean” value (column suffix _20, reading M18) of the same molecule?
Answer: 0.9743

Question: And the “Fig. 7a Th-T reading, mean” value (column suffix _20, reading M85)?
Answer: 1.842

Question: And the “Fig. 7a Th-T reading, mean” value (column suffix _20, reading M86)?
Answer: 1.882

Question: What about the “Fig. 7a Th-T reading, mean” value (column suffix _20, reading M87) of the same molecule?
Answer: 1.842

Question: And the “Fig. 7a Th-T reading, mean” value (column suffix _20, reading M88)?
Answer: 1.862

Question: What about the “Fig. 7a Th-T reading, mean” value (column suffix _20, reading M89) of the same molecule?
Answer: 1.848

Question: And the “Fig. 7a Th-T reading, mean” value (column suffix _20, reading M90)?
Answer: 1.855

Question: And the “Fig. 7a Th-T reading, mean” value (column suffix _20, reading M91)?
Answer: 1.818

Question: What about the “Fig. 7a Th-T reading, mean” value (column suffix _20, reading M92) of the same molecule?
Answer: 1.795

Question: What about the “Fig. 7a Th-T reading, mean” value (column suffix _20, reading M93) of the same molecule?
Answer: 1.7999

Question: What about the “Fig. 7a Th-T reading, mean” value (column suffix _20, reading M94) of the same molecule?
Answer: 1.805

Question: And the “Fig. 7a Th-T reading, mean” value (column suffix _20, reading M95)?
Answer: 1.783

Question: What about the “Fig. 7a Th-T reading, mean” value (column suffix _20, reading M96) of the same molecule?
Answer: 1.793

Question: What about the “Fig. 7a Th-T reading, mean” value (column suffix _20, reading M97) of the same molecule?
Answer: 1.78

Question: What about the “Fig. 7a Th-T reading, mean” value (column suffix _20, reading M98) of the same molecule?
Answer: 1.799

Question: And the “Fig. 7a Th-T reading, mean” value (column suffix _20, reading M99)?
Answer: 1.789

Question: What about the “Fig. 7a Th-T reading, mean” value (column suffix _20, reading M100) of the same molecule?
Answer: 1.781
